Source: PMC7995547, “ω‐Imidazolyl‐alkyl derivatives as new preclinical drug candidates for treating non‐alcoholic steatohepatitis” (Physiological Reports, 2021)

Tested on: HFD‐induced NASH rat model (liver)
Assay: Oxidative stress (ROS status) in the liver, HFD-induced NASH rat model
Assay type: in vivo, Wistar rats
Conditions: for Dose dependence of the effect on SRA level: Pearson correlation / linear regression; for Increase in GR activity compared to disease group: I‐ol, I‐an groups overall; for Increase in GR activity compared to disease group / Decrease in SRA level compared to disease group / Decrease in TBARS level compared to disease group / Reduction of the effect of HFD on the SRA level / Reduction of the effect of HFD on the TBARS level: UDCA 40 mg/kg b.w.; for Decrease in SRA level compared to disease group: average over 0.4, 4, 40 mg/kg b.w. (I‐ol, I‐an), oral gavage daily, last 4 of 16 weeks HFD; for Decrease in TBARS level compared to disease group / Reduction of the effect of HFD on the SRA level / Reduction of the effect of HFD on the TBARS level: average over doses (I‐ol, I‐an)
Experimental: Studies were done using Wistar rats of female sex by the Institute of Pharmacology and Biochemistry at Minsk. The animals were 80–90 days old and weighed 180–200 g. They had free access to a liquid Lieber‐DeCarli (LDC) diet (Lieber et al., 2004) and were housed under standard conditions meaning a 12‐h light/dark cycle at 22 ± 2°C and 55 ± 5% humidity.
The rats were divided into 10 groups based on the diets and experimental substances administered (Figure 2).
Group 1 was designated as the first control group; it was fed a normal standard solid diet. Group 2, as the second control group, was fed a standard amount of fat as a part of the liquid “physiological,” non‐high fat LDC diet. All other groups received the liquid ‘disease‐causing’ LDC diet (Table 2), including a high content of unsaturated fatty acids.
Both LDC diets were in a liquid form as produced by ssniff‐Spezialdiäten GmbH, Soest (Germany). The feed was provided over the entire experimental period of 16 weeks; however, the corresponding experimental substances were only administered in the last four weeks (Figure 3).
The experimental substances I‐ol, I‐an, and UDCA were dissolved in a 0.8% aqueous HPMC gel to obtain the following concentrations: (1) I‐ol at 0.4, 4, and 40 mg/kg body weight (b.w.), (2) I‐an at 0.4, 4, and 40 mg/kg b.w., and (3) UDCA at 40 mg/kg b.w. The Group‐2 and −3 rats received only HPMC as placebo. Each test encompassed 6–8 rats that were put up in a separate cage. The rats were fed ad libitum, and their intake per cage was controlled daily. In order to ensure an exact daily reproducible dosage, the experimental substances or only HPMC was administered intragastrically via oral gavage. Basically, the drug therapy of a chronic disease is the more efficient the higher the adherence of the affected patients. This is generally higher with peroral administration than with any other form of application. At the end of the experiment, the animals were sacrificed under fasting conditions, by aorta dissection and exsanguination, after anesthetizing with an intraperitoneal injection of 5% pentobarbital solution.
The formation of ROS in the rat liver was measured using NADPH‐induced chemiluminescence as described by Müller‐Peddinghaus et al. (Muller‐Peddinghaus, 1987). Luminol and lucigenin were used for detecting the superoxide radical anion (SRA) and hydrogen peroxide. Liver pieces were homogenized in 0.1 M sodium phosphate buffer, pH 7.4; the homogenates were centrifuged at 9,000 × g at 0°C; and aliquots were used for subsequent measurements. Reduced glutathione (GSH) was estimated via a modified Ellman's method (Ellman, 1959), in which 0.2 mL of the liver homogenate supernatant was added to 1.6 mL of an EDTA/sodium phosphoric acid solution and the absorbance noted at 412 nm against blank values. GSH solution produced immediately before application served as the standard. The end products of the lipid peroxidation reaction were equivalent to the thiobarbituric acid‐reacting substances (TBARS), and their concentration was measured according to the method described by Buege et al. (Buege & Aust, 1978). Enzymatic activities of microsomal glutathione reductase (GR) and cytosolic glutathione peroxidase (GPx) were measured according to the methodology of Buko et al. (Buko et al., 2002). Catalase activity was determined according to the spectroscopic methodology described by Beers et al. (Beers & Sizer, 1952) using hydrogen peroxide as the substrate.

[1] = liver, highest concentration (40 mg/kg b.w.)

Structure (SMILES) | Dose dependence of the effect on GSH level (0.4, 4, 40 mg/kg b.w.) | Dose dependence of the effect on SRA level (0.4, 4, 40 mg/kg b.w.) | Increase in GR activity compared to disease group (liver) | Decrease in SRA level compared to disease group (liver) | Decrease in TBARS level compared to disease group (liver) | Reduction of the effect of HFD on the SRA level (liver) | Reduction of the effect of HFD on the TBARS level (liver) | Decrease in hydrogen peroxide level compared to disease group [1] | Hydrogen peroxide level below the reference values of group 1 [1] | Increase in GSH level compared to disease group [1] | Reduction of SRA level [1] | Reduction of the effect of HFD on GSH level [1] | Dose dependence of the effect on hydrogen peroxide level (0.4, 4, 40 mg/kg b.w.) | Effect on GSH level (in words) (liver, compound overall) | SRA level below the reference value of control group 1 [1] | Effect of HFD nullified, GR activity increased by (on an average) (liver, relative to the effect of HFD)
CCCCCCCCCCCCn1ccnc1 [I‐an, 1‐imidazolyldodecane] | weak, significant (p < 0.05), linear, dose‐dependent effect | weak, significant (p < 0.05), linear, dose‐dependent effect | no effect | 23% | 35% | 65% | 82% | 43% | 4% | 63% | 75% | 87% |  |  |  | 
OCCCCCCCCCCCCn1ccnc1 [I‐ol, 12‐imidazolyl‐1‐dodecanol] |  | strong, very highly significant (p < 0.001), linear, dose‐dependent effect | 28% | 21% | 38% | 60% | 87% | 50% | 16% |  |  |  | strong, very highly significant (p < 0.001), linear, dose‐dependent effect | non‐significant trend toward an increasing GSH level | 24% | 113%
